One test addresses RORγ LBD (Homo sapiens (Human), UniProt P51449). Briefly: ROR gamma radio-ligand binding assay (3H 25-Hydroxycholesterol competitive displacement, dextran charcoal method). The settings on record: for pIC50: in range; for inhibition at 1 µM / RORγ ligand binding assay: % inhibition @1 μM: 1 μM compound; for inhibition at 10 µM / RORγ ligand binding assay: % inhibition @ 10 μM: 10 μM compound. The procedure:
Gene corresponding to the ligand binding domain of RORγ (247-497 amino acids) was sub-cloned into pGEX4T1 vector. Transformants of E. coli BL21 (DE3) containing pGEX4T1-RORγ (247-497) were grown to an OD of 0.8 at 37° C. and induced with 0.5 mM isopropyl-β-D-thiogalactopyranoside (IPTG) for 18 hours at 18° C. Cells were harvested and resuspended in 20 mM Tris-HCl (pH 8.5), 0.3 M NaCl, 10% Glycerol, 2 mM β-Me (β-Mercaptoethanol), 2 mM CHAPS, protease inhibitors, 0.6 mM PMSF and Lysozyme. Supernatant of lysate was passed through glutathione sepharose 4B affinity beads (GE health care) pre-equilibrated with 20 mM Tris-HCl (pH 8.5), 0.3 M NaCl, 10% Glycerol, 2 mM β-Me. RORγ was eluted using a gradient of reduced glutathione (3-20 mM). Fractions containing RORγ protein were pooled, concentrated and passed through Superdex 75 gel filtration (GE health care) column equilibrated with 20 mM Na-phosphate pH 8.0, 0.2 M NaCl, 10% glycerol. The peak fractions from gel filtration column were pooled and stored at −80° C. for Binding assay.
ROR gamma radioligand binding was performed using ^3H 25-Hydroxycholesterol in a competitive displacement assay using dextran charcoal method. Using 5 nM ^3H 25-Hydroxycholesterol with 300 ng RORγ LBD (in house expressed in E. coli) along with the compound were incubated in the binding buffer (50 mM HEPES, pH 7.5, 150 mM NaCl, 0.01% BSA and 5 mM MgCl2) for 30 min at room temperature. Then dextran-charcoal mixture (0.5% charcoal: 0.05% dextran) was used for separation and the supernatant was read on the Perkin Elmer Trilux Microbeta counter. Dose response curves were generated for 10 compound concentrations using GraphPad Prism software Version 5 (San Diego, Calif., USA) using non-linear regression curve fit for sigmoidal dose response (variable slope).

In test [1] the target is ROR gamma ligand binding domain (Homo sapiens (Human), UniProt P51449). In words: ROR gamma luciferase reporter assay (GAL4-ROR gamma LBD, HEK293 cells). The class given is cell-based. The settings on record: 48 hours treatment, read-out: RORγ luciferase Reporter assay: IC50 (nM) (in range). As for the experimental part:
The Ligand Binding Domain (LBD) of ROR gamma was cloned into pFN26A (BIND) hRluc-neo Flexi vector (Promega) which expresses a fusion protein comprised of a DNA binding domain of the yeast GAL4 gene, a linker segment and ROR gamma ligand binding domain. For the reporter assay 0.02×10^6 HEK293 cells were seeded per well in a 96 well plate in complete media and incubated overnight in an incubator with 5% CO2 at 37° C. before transfection. Cells were then co-transfected with pFN26A hRluc-neo Flexi vector containing the LBD of ROR gamma and pGL4.35 [luc2P/9XGAL4 UAS/Hygro] Vector (Promega) in low serum media. Post transfection and recovery, cells were treated with the test compounds for 48 hours. The assay was terminated using the Bright-Glo Luciferase assay system from Promega and the Luminescence was measured using a luminescence reader. The luminescence values were used to calculate the potency of the compounds.
(In a reporter assay the amount or activity of a reporter protein is the signal.)

pIC50: −log10 of the molar value.

One may read the pIC50 as the IC50 on a negative log10 scale, so that one unit is a factor of ten. The term IC50 denotes the midpoint of a concentration-inhibition curve. A word on the inhibition: it is the share of the control response that was lost under treatment. A low value points to little suppression.

Chain of RORγ LBD (P51449 268-518): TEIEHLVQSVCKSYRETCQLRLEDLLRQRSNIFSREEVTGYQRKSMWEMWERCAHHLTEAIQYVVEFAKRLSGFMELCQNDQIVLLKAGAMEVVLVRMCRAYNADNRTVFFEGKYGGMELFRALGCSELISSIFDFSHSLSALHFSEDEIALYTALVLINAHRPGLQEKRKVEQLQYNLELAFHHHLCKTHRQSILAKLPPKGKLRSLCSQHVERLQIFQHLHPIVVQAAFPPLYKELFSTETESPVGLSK
Chain of ROR gamma ligand binding domain (P51449 269-508): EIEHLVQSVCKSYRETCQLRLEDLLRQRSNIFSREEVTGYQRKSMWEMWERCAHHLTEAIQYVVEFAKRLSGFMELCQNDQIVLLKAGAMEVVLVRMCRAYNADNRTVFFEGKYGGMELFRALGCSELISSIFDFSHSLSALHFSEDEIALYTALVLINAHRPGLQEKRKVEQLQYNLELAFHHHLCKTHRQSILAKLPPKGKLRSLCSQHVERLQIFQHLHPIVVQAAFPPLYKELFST

In turn, `CCS(=O)(=O)c1ccc(CC(=O)Nc2ccc3c(n2)CCC(C)(c2ccc(OC)nn2)C3=O)cc1` (centres unmarked) [Compound 12, 2-(4-(ethylsulfonyl)phenyl)-N-(6-(6-methoxypyridazin-3-yl)-6-methyl-5-oxo-5,6,7,8-tetrahydroquinolin-2-yl)acetamide] gave a pIC50 on RORγ LBD of over 6.82. Moreover, in test [1], the IC50 fell in the range of 100 to 500 nM.

On RORγ LBD, `CCS(=O)(=O)c1ccc(CC(=O)Nc2cc(C)c3c(n2)CCC(C)(c2nccc(OC)n2)C3=O)cc1` (centres unmarked) [Compound 21, 2-(4-(ethylsulfonyl)phenyl)-N-(6-(4-methoxypyrimidin-2-yl)-4,6-dimethyl-5-oxo-5,6,7,8-tetrahydroquinolin-2-yl)acetamide] had an inhibition at 1 µM of 94%, an inhibition at 10 µM of 92% and a pIC50 of 6.52 to 6.82. In test [1], the IC50 was under 100 nM.

Consider `CCS(=O)(=O)c1ccc(CC(=O)Nc2ccc3c(n2)CCC(C)(c2ncc(OC)cn2)C3=O)cc1` (single isomer, unassigned) [compound 111, 2-(4-(ethylsulfonyl)phenyl)-N-(6-(5-methoxypyrimidin-2-yl)-6-methyl-5-oxo-5,6,7,8-tetrahydroquinolin-2-yl)acetamide], for which, on RORγ LBD, the “RORγ ligand binding assay: % inhibition @1 μM” value stood at 62%, the “RORγ ligand binding assay: % inhibition @ 10 μM” value was 19% and the pIC50 was under 6.52. In addition, the IC50 in test [1] is over 500 nM.

As for `CCS(=O)(=O)c1ccc(CC(=O)Nc2ccc3c(n2)CCC(C)(c2ccc(C)s2)C3=O)cc1` (centres unmarked) [Compound 45, 2-(4-(ethylsulfonyl)phenyl)-N-(6-methyl-6-(5-methylthiophen-2-yl)-5-oxo-5,6,7,8-tetrahydroquinolin-2-yl)acetamide], on RORγ LBD, the inhibition at 1 µM amounted to 66% and 10 µM produced 73% inhibition. Besides, the IC50 in test [1] was under 100 nM.

With `CCS(=O)(=O)c1ccc(CC(=O)Nc2cc(C)c3c(n2)CCC(C)(c2cc(OC)ccn2)C3=O)cc1` (centres unmarked) [Compound 22, 2-(4-(ethylsulfonyl)phenyl)-N-(6-(4-methoxypyridin-2-yl)-4,6-dimethyl-5-oxo-5,6,7,8-tetrahydroquinolin-2-yl)acetamide], on RORγ LBD, at 1 µM the inhibition was 76% and the inhibition at 10 µM amounted to 95%. Also, the IC50 in test [1] fell in the range of 100 to 500 nM.

Turning to `CCS(=O)(=O)c1ccc(CC(=O)Nc2ccc3c(n2)CCC(C)(c2nccn4cc(C)nc24)C3=O)cc1` (single isomer, unassigned) [Compound-105, 2-(4-(ethylsulfonyl)phenyl)-N-(6-methyl-6-(2-methylimidazo[1,2-a]pyrazin-8-yl)-5-oxo-5,6,7,8-tetrahydroquinolin-2-yl)acetamide], on RORγ LBD, the “RORγ ligand binding assay: % inhibition @1 μM” value is 100%, the “RORγ ligand binding assay: % inhibition @ 10 μM” value is 97% and the pIC50 was over 6.82. Further, in test [1], the half-inhibitory concentration (IC50) was under 100 nM.

With `CCS(=O)(=O)c1ccc(CC(=O)Nc2ccc3c(n2)CCC(C)(c2nccn4cc(C)nc24)C3=O)cc1` (single isomer, unassigned) [compound 106, 2-(4-(ethylsulfonyl)phenyl)-N-(6-methyl-6-(2-methylimidazo[1,2-a]pyrazin-8-yl)-5-oxo-5,6,7,8-tetrahydroquinolin-2-yl)acetamide], at RORγ LBD, the “RORγ ligand binding assay: % inhibition @1 μM” value is 70% and the “RORγ ligand binding assay: % inhibition @ 10 μM” value was 1%. For the same compound, in test [1], the IC50 was over 500 nM.

Take `CCS(=O)(=O)c1ccc(CC(=O)Nc2cc(C)c3c(n2)CCC(C)(c2ccc(OC)nn2)C3=O)cc1` (centres unmarked) [Compound 31, 2-(4-(ethylsulfonyl)phenyl)-N-(6-(6-methoxypyridazin-3-yl)-4,6-dimethyl-5-oxo-5,6,7,8-tetrahydroquinolin-2-yl)acetamide]: at RORγ LBD, the inhibition at 1 µM worked out at 90%, the inhibition at 10 µM is 88% and the pIC50 is over 6.82. The IC50 in test [1] was under 100 nM.

With `CCS(=O)(=O)c1ccc(CC(=O)Nc2ccc3c(n2)CCC(C)(c2nc(C)cn4ccnc24)C3=O)cc1` (centres unmarked) [Compound 16, 2-(4-(ethylsulfonyl)phenyl)-N-(6-methyl-6-(6-methylimidazo[1,2-a]pyrazin-8-yl)-5-oxo-5,6,7,8-tetrahydroquinolin-2-yl)acetamide], at RORγ LBD, 1 µM produced 86% inhibition, the inhibition at 10 µM worked out at 93% and the pIC50 is 6.52 to 6.82. Besides, the IC50 in test [1] was under 100 nM.

In the case of `CCS(=O)(=O)c1ccc(CC(=O)Nc2ccc3c(n2)CCC(C)(c2nc(C)cn4ccnc24)C3=O)cc1` (single isomer, unassigned) [compound 117, 2-(4-(ethylsulfonyl)phenyl)-N-(6-methyl-6-(6-methylimidazo[1,2-a]pyrazin-8-yl)-5-oxo-5,6,7,8-tetrahydroquinolin-2-yl)acetamide], in test [1], the IC50 was over 500 nM.

Take `CCS(=O)(=O)c1ccc(CNC(=O)c2ccc3c(n2)CCC(C)(c2cc(C)nc(C)n2)C3=O)cc1` (single isomer, unassigned) [compound 126, 6-(2,6-dimethylpyrimidin-4-yl)-N-(4-(ethylsulfonyl)benzyl)-6-methyl-5-oxo-5,6,7,8-tetrahydroquinoline-2-carboxamide]: in test [1], the IC50 was over 500 nM.

`CCS(=O)(=O)c1ccc(CC(=O)Nc2ccc3c(n2)CCC(C)(c2nccn4c(C)cnc24)C3=O)cc1` (single isomer, unassigned) [compound 113, 2-(4-(ethylsulfonyl)phenyl)-N-(6-methyl-6-(3-methylimidazo[1,2-a]pyrazin-8-yl)-5-oxo-5,6,7,8-tetrahydroquinolin-2-yl)acetamide]: the IC50 in test [1] was under 100 nM.

As for `CCS(=O)(=O)c1ccc(CC(=O)Nc2ccc3c(n2)CCC(C)(c2cc(C)nc(C)n2)C3=O)nc1` (single isomer, unassigned) [compound 123, N-(6-(2,6-dimethylpyrimidin-4-yl)-6-methyl-5-oxo-5,6,7,8-tetrahydroquinolin-2-yl)-2-(5-(ethylsulfonyl)pyridin-2-yl)acetamide], in test [1], the IC50 is over 500 nM.

`CCS(=O)(=O)c1ccc(CC(=O)Nc2ccc3c(n2)CCC(C)(c2cc(C(F)(F)F)nc(C)n2)C3=O)cc1` (centres unmarked) [Compound 67, 2-(4-(ethylsulfonyl)phenyl)-N-(6-methyl-6-(2-methyl-6-(trifluoromethyl)-pyrimidin-4-yl)-5-oxo-5,6,7,8-tetrahydroquinolin-2-yl)acetamide]: the IC50 in test [1] was over 500 nM.

As for `CCS(=O)(=O)c1ccc(CC(=O)Nc2cc(C)c3c(n2)CCC(C)(c2nnc(OC)cc2C)C3=O)cc1` (centres unmarked) [Compound 95, 2-(4-(ethylsulfonyl)phenyl)-N-(6-(6-methoxy-4-methylpyridazin-3-yl)-4,6-dimethyl-5-oxo-5,6,7,8-tetrahydroquinolin-2-yl)acetamide], the IC50 in test [1] was over 500 nM.

With `CCS(=O)(=O)c1ccc(CC(=O)Nc2cc(C)c3c(n2)CCC(C)(c2cc(C)c(OC)nn2)C3=O)cc1` (centres unmarked) [Compound 96, 2-(4-(ethylsulfonyl)phenyl)-N-(6-(6-methoxy-5-methylpyridazin-3-yl)-4,6-dimethyl-5-oxo-5,6,7,8-tetrahydroquinolin-2-yl)acetamide], the IC50 in test [1] was in the range of 100 to 500 nM.

As to `CCS(=O)(=O)c1ccc(CC(=O)Nc2ccc3c(n2)CC(C)C(c2cc(C)nc(C)n2)C3=O)cc1` (centres unmarked) [Compound 82, N-(6-(2,6-dimethylpyrimidin-4-yl)-7-methyl-5-oxo-5,6,7,8-tetrahydroquinolin-2-yl)-2-(4-(ethylsulfonyl)phenyl)acetamide], the IC50 in test [1] was over 500 nM.

Take `CCS(=O)(=O)c1ccc(CC(=O)Nc2ccc3c(n2)CCC(C)(c2cc(C)nc(C(F)(F)F)n2)C3=O)cc1` (centres unmarked) [Compound 78, 2-(4-(ethylsulfonyl)phenyl)-N-(6-methyl-6-(6-methyl-2-(trifluoromethyl)-pyrimidin-4-yl)-5-oxo-5,6,7,8-tetrahydroquinolin-2-yl)acetamide]: the IC50 in test [1] lay within 100 to 500 nM.

With `CCS(=O)(=O)c1ccc(CC(=O)Nc2ccc3c(n2)CCC(C)(c2nccn4c(C)cnc24)C3=O)cc1` (single isomer, unassigned) [compound 114, 2-(4-(ethylsulfonyl)phenyl)-N-(6-methyl-6-(3-methylimidazo[1,2-a]pyrazin-8-yl)-5-oxo-5,6,7,8-tetrahydroquinolin-2-yl)acetamide], the IC50 in test [1] was over 500 nM.

The values are drawn from patent US11229636B2, “Substituted tetrahydroquinolinone compounds as ROR gamma modulators” (Aurigene Discovery Technologies Limited, priority 2015, dated 2022).
